We go through four molecules from ChEMBL document CHEMBL1201862, “PubChem BioAssay data set” (2004).

Test systems include 786-0; ACHN; HCT-15; HOP-62; HOP-92; M14; MOLT-4; NCI-H23; OVCAR-4; RXF 393; SF-295; SK-MEL-28; SK-MEL-2; SK-OV-3; SNB-75; TK-10; UACC-62; EKVX.
What all share (test): inhibition of tumour cell growth, NCI panel, 48 h

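Where inhibition never reached the appropriate level, the endpoint shown equals the highest concentration tested. Otherwise, values were interpolated linearly from a five-concentration, 48-hour dose response in 96-well plates. Abbreviation: GI50, concentration required for 50% inhibition of growth.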 The source made the active and inactive calls. Cut-off read from the data, not from the text of the source: active = GI50 up to about 1.1 µM and inactive = higher.

Regarding `Cc1ccc([Se](=C(C(=O)c2ccccc2)C(=O)c2ccccc2)c2ccc(C)cc2)cc1`, the GI50 is 38.3 µM (inactive) in the assay with 786-0; 24.5 µM (inactive) in the assay with ACHN; 16.9 µM in the assay with HCT-15; 48 µM (inactive) in the assay with HOP-62; 15 µM (inactive) with HOP-92; 33.6 µM (inactive) in the assay on M14. For the same molecule, the GI50 with MOLT-4 is 16 µM (inactive); in the assay on NCI-H23 it was 18.8 µM (inactive); with OVCAR-4, 16.4 µM (inactive); with RXF 393 it was 68.1 µM (inactive); with SF-295, 22.3 µM (inactive); with SK-MEL-28 it was 31 µM (inactive). Moreover, the GI50 in the assay on SK-MEL-2 is 30.8 µM (inactive); with SK-OV-3, 43.7 µM (inactive); in the assay with SNB-75 it was 37.8 µM (inactive); in the assay on TK-10 it was 23.4 µM (inactive); in the assay on UACC-62, 20.7 µM (inactive).
On to `O=c1ccn2n1Cc1ccccc1C2`, for which the GI50 in the assay on 786-0 is > 100 µM (inactive); in the assay with ACHN, > 100 µM (inactive); with EKVX it was > 100 µM (inactive); with HCT-15 it was > 100 µM; with HOP-62, > 100 µM (inactive); with HOP-92, > 100 µM (inactive). In addition, the GI50 in the assay with M14, with MOLT-4, with NCI-H23, with OVCAR-4, in the assay on RXF 393 and with SF-295 was > 100 µM (inactive) each time. For the same molecule, the GI50 in the assay with SK-MEL-28, in the assay on SK-MEL-2, in the assay on SK-OV-3, with TK-10 and in the assay with UACC-62 was > 100 µM (inactive) in each case.
Regarding `CC(=O)OCC1OC(O[C@@H]2C[C@H]3C(C)(C)[C@H](OC(C)=O)CC[C@]3(C)[C@H]3CC[C@]4(C)C(=CC[C@H]4[C@@H](C)C[C@@H](O)[C@H](O)C(C)(C)O)[C@@]32C)C(O)C(O)C1O` (some centres not stated), the GI50 in the assay with 786-0 is 16.4 µM (inactive); in the assay on ACHN, 16.7 µM (inactive); in the assay on EKVX, 19.1 µM (inactive); in the assay with HCT-15, 17.3 µM; with HOP-62, 15.8 µM (inactive); in the assay with HOP-92, 17 µM (inactive). For the same molecule, the GI50 in the assay on M14 was 21.3 µM (inactive); in the assay with MOLT-4, 16.8 µM (inactive); in the assay on NCI-H23, 18.6 µM (inactive); in the assay on OVCAR-4, 16 µM (inactive); in the assay with SF-295, 18.7 µM (inactive); in the assay on SK-MEL-28, 15.9 µM (inactive). The GI50 with SK-MEL-2 was 17.4 µM (inactive); in the assay on SK-OV-3, 18.5 µM (inactive); in the assay with SNB-75, 22 µM (inactive); in the assay with TK-10, 17 µM (inactive); in the assay on UACC-62 it was 16.1 µM (inactive).
In the case of `Cn1c(N)nc2c(nc(OCc3ccccc3)n2C2OC(CO)C(O)C2O)c1=O` (configuration not stated), the GI50 with 786-0, with ACHN, in the assay on EKVX, in the assay with HOP-62, in the assay on HOP-92 and in the assay on M14 was > 100 µM (inactive) throughout. Besides, the GI50 in the assay with MOLT-4 was 71.8 µM (inactive); with OVCAR-4, > 100 µM (inactive); in the assay with RXF 393, > 100 µM (inactive); in the assay on SF-295 it was > 100 µM (inactive); in the assay on SK-MEL-28, > 100 µM (inactive); in the assay with SK-MEL-2, > 100 µM (inactive). The GI50 with SK-OV-3, with SNB-75, in the assay on TK-10 and in the assay on UACC-62 was > 100 µM (inactive) in each case.
